Read-outs that look alike come from different tables or passages of the source.
Assays:
Plasmodium kinases = assay: Kinobead competitive inhibition; assay type: binding; conditions: 10 µM, log2 fold change below -1 versus vehicle
[1] = test system: PfArk2 (PF3D7_0309200) cKD parasites; assay: Inhibitor susceptibility assay, PfArk2 conditional knockdown line; assay type: cell-based, Plasmodium falciparum; conditions: cKD versus control
Procedure: Compound susceptibility assays using P. falciparum Ark1 and Ark2 cKD lines were carried out as previously described^[13]. Ark1 (PF3D7_0605300) and Ark2 (PF3D7_0309200) cKD lines generated by fusing the coding sequence and non-coding RNA aptamer sequences in the 5’- and 3’-UTR, permitting translation regulation using the TetR-DOZI system^[14]. Editing was achieved by CRISPR/SpCas9 using the linear pSN054 vector that contains cloning sites for the left homology region (LHR) and the right homology region (RHR), as well as a gene-specific guide RNA under control of the T7 promoter^[15]. The final constructs were sequence-verified and further confirmed by restriction digests. Transfection into Cas9- and T7 RNA polymerase-expressing NF54 parasites was carried out by pre-loading erythrocytes with the donor vector as previously described^[16]. Parasite culture was maintained continuously in 500 nM anhydrotetracycline (aTc, Sigma-Aldrich 37919) and drug selection with 2.5 μg/mL of Blasticidin S (RPI Corp B12150-0.1) was initiated four days after transfection. Briefly, synchronous ring-stage Ark1 (PF3D7_0605300) and Ark2 (PF3D7_0309200) cKD parasites, as well as a control parasite line expressing an aptamer-regulatable fluorescent protein, were maintained in the presence of high aTc (500 nM) or no aTc and distributed into 384-well polystyrene microplates (Corning). […]

[2] = Protein binding in Albumax II media; assay type: in vitro ADME; conditions: bovine
Excerpt: In vitro ADME analysis for logD, kinetic solubility (PBS, pH 7.4), human liver microsome clearance and t1/2, rat hepatocyte clearance and t1/2, and protein binding in Albumax media (simulating the malaria parasite culture media) was all performed as per standard assays by TCG LifeSciences.

recombinant PfNek1 = assay: KinaseSeeker single-point assay, PfNek1; assay type: binding, Plasmodium falciparum; conditions: single point 1 µM
[3] = test system: P. berghei liver schizonts in HepG2-A16-CD81EGFP cells; assay: P. berghei (PbLuc) liver stage assay; assay type: cell-based; conditions: Plasmodium berghei
Excerpt: (B) Antiplasmodial activity of nine anticancer aurora kinase inhibitors (selected based on their PfNF54 ABS activity) against P. falciparum multidrug-resistant ABS parasites (PfDd2 and PfK1). (C) Kinobead competitive inhibition data.
Plasmodium berghei (Pb) sporozoites were obtained by dissecting the salivary glands of infected Anopheles stephensi mosquitoes. These were provided by The SporoCore, at the University of Georgia, GA, USA (SporoCore.uga.edu). The parasites utilised a GFP-Lucama1-eef1 reporter line^[5]. These engineered parasites, termed Pb-Luc, were used to infect HepG2-A16-CD81EGFP cells. HepG2-A16-CD81EGFP cells stably transformed to express a GFP-CD81 fusion protein^[6] were cultured at 37 °C in 5% CO2 in DMEM (Invitrogen, Carlsbad, USA) supplemented with 10% FBS (Corning, NY, USA), 1X Pen/Strep/Glu (Thermo Fisher Scientific, USA). Compounds were prepared as 10 mM solutions in DMSO, and 10 nL of each (resulting in a final DMSO concentration of 0.1% per well) was transferred into assay plates using an ECHO 650 (Beckman). Concentrations ranged from 10 µM to 0.5 nM. Atovaquone (0.1 µM) served as a positive control, while 0.1% DMSO was used as a negative control. Liver stage (PbLuc) screening has been previously described^[7]. Human hepatic cells (3 × 10^3; HepG2-A16-CD81-EGFP) suspended in 5 µL of DMEM medium ([…], supplemented with 5% FBS, 5× Pen/Strep/Glu) were seeded in 1536-well plates (Greiner BioOne) using the MultiFlo FX (Agilent) 20 h before infection. PbLuc sporozoites, isolated from the salivary glands of A. stephensi mosquitoes, were filtered twice through a 20 µm nylon pore cell strainer. The sporozoites were resuspended in screening media, counted with a hemocytometer, and diluted to a final concentration of 200 sporozoites per µL. Each well received 1,000 sporozoites in 5 µL, dispensed via the GNF Dispenser II (GNF Systems). […] Luminescence was measured immediately with the Pherastar FSX reader (BMG Labtech). Luminescence values were normalized using the positive and negative controls. EC50 values were calculated with CDD Vault (Burlingame, CA). […]

COc1cc(N2CCC(N3CCN(C)CC3)CC2)ccc1Nc1ncc(Cl)c(Nc2ccccc2S(=O)(=O)C(C)C)n1 [TAE684, NVP-TAE684]
Plasmodium kinases competed from Kinobeads (Plasmodium kinases): three Plasmodium kinases were competed from Kinobeads | change in IC50 in PfArk2 cKD [1]: no change in the IC50 value | fraction unbound [2]: 0.2 | effect on PfNek1 (recombinant PfNek1): 40% | IC50 ([3]; read-out: IC50 P. berghei liver schizonts): < 200 nM | IC50 ([3]; 48 h, PbLuc, read-out: Pb liver stage IC50): 660 nM

Source: article PMC12707362, “Targeting Aurora Kinases as Essential Cell‐Cycle Regulators to Deliver Multi‐Stage Antimalarials Against Plasmodium Falciparum” (Angewandte Chemie (International Ed. in English), 2025)
